Assays:
[1] = tested on: human breast cancer cells MDA-MB-231; assay: Soft agar colony formation assay; format: cell-based; settings: MDA-MB-231, 336 h, 14 days of incubation, read-out: inhibition of colony formation (decrease in number of colonies) of MDA-MB-231 cells
Description: Since compounds 1–3, 5–7, and 9 inhibited the viability of breast cancer cells MDA-MB-231, we then tested their ability to inhibit colony formation of MDA-MB-231 cells using the soft agar assay. The colony formation assay, also referred to as soft agar assay, allows for screening the therapeutic efficacy of compounds for anchorage-independent cell growth, which is one of the hallmark characteristics of cellular transformation and uncontrolled growth of cancer cells.
Figure 4 The effect of compounds 1–3, 5–7, and 9 on colony formation of human breast cancer cells MDA-MB-231 (2.4 × 10^4) that were exposed to PBS (control), Doxo (5, 10, and 20 µM), or the compounds under study (5, 10, and 20 µM) and placed on dishes with 0.3% Basal Medium Eagle (BME) agar containing 10% fetal bovine serum FBS, 2 mM L-glutamine, and 25 µg/mL gentamicin. After 14 days of incubation, the number of colonies was counted under a microscope using the ImageJ software program.
MDA-MB-231 cells (2.4 × 10^4/mL) were exposed to either DMSO (vehicle control) or Doxo (positive control) at concentrations of 5, 10, and 20 µM, and to 1–3, 5–7, and 9 at concentrations of 5, 10, 20 µM. Then, the cells were applied on dishes with 0.3% BME agar containing 10% FBS, 2 mM L-glutamine, and 25 µg/mL gentamicin. The cultures were maintained at 37°C in a 5% CO2 incubator for 14 days. The number and size of the colonies were estimated under a Motic microscope AE 20 and using the ImageJ software bundled with 64-bit Java 1.8.0_112 (NIH, Bethesda, Maryland, USA).

[2] = tested on: melanoma SK-MEL-28 cells; assay: MTS cell viability assay, SK-MEL-28; format: cell-based; settings: Homo sapiens, 24 h exposure, mean ± SD, read-out: Half Maximal Inhibitory Concentration (IC50) SK-MEL-28
Experimental: (§1) In the present study, the cytotoxic activity of compounds 1–3, 5–7, and 9 against human normal embryonic kidney cells HEK293 and a panel of human cancer cells HT-29, SK-MEL-28, and MDA-MB-231 was measured by the MTS assay after 24 h of exposure. Different concentrations of doxorubicin (10, 50, and 100 µM), used as a positive control, and compounds 1–3, 5–7, and 9 (1, 10, and 50 µM) were studied.
(§2) The human embryonic kidney cells HEK293 (ATCC® CRL-1573™), the colorectal adenocarcinoma cell line HT-29 (ATCC® HTB-38), the melanoma SK-MEL-28 (ATCC® HTB-72™), and breast adenocarcinoma MDA-MB-231 (ATCC® HTB-26™) cell lines were obtained from the American Type Culture Collection (Manassas, VA, USA).
(§3) HT 29 cells were cultured in McCoy’s 5A medium; HEK293, SK-MEL-28, and MDA-MB-231 cell lines were maintained in the DMEM medium. The culture media were supplemented with 10% FBS and a 1% penicillin/streptomycin solution. The cell cultures were maintained at 37 °C in a humidified atmosphere containing 5% CO2.
(§4) Compounds 1–3, 5–7, and 9 were dissolved in a sterile dimethyl sulfoxide solution (DMSO) to prepare stock concentrations of 20 mM. Cells were exposed to serially diluted 1–3, 5–7, and 9 (1–100 µM) (with the culture medium used as a diluent) (the final concentration of DMSO was less than 0.5%).
(§5) Doxorubicin (Doxo) (Teva Pharmaceutical Industries, Ltd. (Israel)) was dissolved in sterile PBS to prepare stock concentrations of 10 mM. Cells were exposed to serially diluted Doxo (10–100 µM) (with the culture medium used as a diluent).
(§6) The effect of compounds 1–3, 5–7, and 9 on the viability of tested cell lines was evaluated by the MTS assay. HEK293 (1.0 × 10^4/200 µL), HT-29 (1.0 × 10^4/200 µL), SK-MEL-28 (0.8 × 10^4/200 µL), and MDA-MB-231 (1.0 × 10^4/200 µL) cells were seeded on a 96-well plate and incubated for 24 h at 37°C in a CO2 incubator. The cells were exposed to either DMSO (vehicle control) or Doxo at concentrations of […] (positive control) or 1–3, 5–7, and 9 at concentrations of 1, 10, and 50 µM for 24 h. The cells were subsequently incubated with 15 µL MTS reagent for 3 h, and the absorbance of each well was measured at 490/630 nm on a Power Wave XS microplate reader (BioTek, Winooski, VT, USA). The concentration at which a compound exerted half of its maximal inhibitory effect on cell viability (IC50) was calculated using the AAT-Bioquest® online calculator [27].

[3] = tested on: human normal embryonic kidney cells HEK293; assay: MTS cell viability assay, HEK293; format: cell-based; settings: 24 h exposure, mean ± SD, read-out: Half Maximal Inhibitory Concentration (IC50) HEK293
Experimental: as §1, §2, §3, §4, §5, §6

[4] = tested on: colorectal adenocarcinoma cell line HT-29; assay: MTS cell viability assay, HT-29; format: cell-based; settings: Homo sapiens, 24 h exposure, mean ± SD, read-out: Half Maximal Inhibitory Concentration (IC50) HT-29
Experimental: as §1, §2, §3, §4, §5, §6

[5] = tested on: breast adenocarcinoma MDA-MB-231 cells; assay: MTS cell viability assay, MDA-MB-231; format: cell-based, human; settings: for IC50: Homo sapiens, MDA-MB-231, MTS assay, 24 h exposure, mean ± SD, read-out: Half Maximal Inhibitory Concentration (IC50) MDA-MB-231; for cytotoxic activity against MDA-MB-231 cells (in words): concentrations of up to 50 µM, MTS, 24 h
Experimental: as §1, §2, §3, §4, §5, §6

[6] = tested on: murine leukemic cells L1210; set-up: method as in doi:10.1021/jo00080a023, PMID 12192142; settings: at a concentration of 2 μM; ref [21],[28]; cited from earlier work
[7] = tested on: a number of human cancer cell lines; set-up: method as in doi:10.1021/jo00080a023, PMID 12192142; settings: at concentrations of 15–34 μM; ref [21],[28]; cited from earlier work

Row | Structure (SMILES) | inhibition at 20 µM [1] | IC50 [2] | IC50 [3] | IC50 [4] | IC50 [5] | cytotoxic activity against MDA-MB-231 cells (in words) [5] | cytotoxic activity against murine leukemic cells L1210 (in words) [6] | cytotoxic activity against a number of human cancer cell lines (in words) [7]
1 | CCCCCCCCCCCCCC[C@@H](O)C(=O)N[C@@H](CO)[C@H](O)[C@H](O)CCCC/C=C\CCCCCCCCC(C)C [Compound 1, (2S,3S,4R,9Z)-2-[(2R)-2-hydroxyhexadecanoylamino]-19-methyl-9-icosen-1,3,4-triol] | 46% | > 50 µM | > 50 µM | > 50 µM | > 50 µM | slight cytotoxic activity | – | –
2 | CCCCCCCCCCCCCC[C@@H](O)C(=O)N[C@@H](CO)[C@H](O)[C@H](O)CCCC/C=C\CCCCCCCCCCC(C)C [Compound 2, (2S,3S,4R,9Z)-2-[(2R)-2-hydroxyhexadecanoylamino]-21-methyl-9-docosen-1,3,4-triol] | 68% | > 50 µM | > 50 µM | > 50 µM | 48.7 ± 2.4 µM | – | – | –
3 | CCCCCCCCCCCCCCC[C@@H](O)C(=O)N[C@@H](CO)[C@H](O)[C@H](O)CCCC/C=C\CCCCCCCCCCC(C)C [Compound 3, (2S,3S,4R,9Z)-2-[(2R)-2-hydroxyheptadecanoylamino]-21-methyl-9-docosen-1,3,4-triol] | 48% | > 50 µM | > 50 µM | > 50 µM | 49.4 ± 1.6 µM | – | – | –
4 | CCCCCCC/C=C/C(C)=C/CC/C=C/[C@@H](O)[C@H](CO[C@@H]1O[C@H](CO)[C@@H](O)[C@H](O)[C@H]1O)NC(=O)[C@H](O)CCCCCCCCCCCCCCCCCCCC [Compound 5, ophidiacerebroside C] | 54% | > 50 µM | > 50 µM | > 50 µM | 48.7 ± 1.8 µM | – | strong cytotoxic activity | moderate cytotoxic activity
5 | CCCCCCC/C=C/C(C)=C/CC/C=C/[C@@H](O)[C@H](CO[C@@H]1O[C@H](CO)[C@@H](O)[C@H](O)[C@H]1O)NC(=O)[C@H](O)CCCCCCCCCCCCCCCCCCCCC [Compound 6, ophidiacerebroside D] | 68% | > 50 µM | > 50 µM | > 50 µM | 40.5 ± 0.5 µM | – | strong cytotoxic activity | moderate cytotoxic activity
6 | CCCCCCCCCCCCCCCCCCCC[C@@H](O)C(=O)N[C@@H](CO[C@@H]1O[C@H](CO)[C@@H](O)[C@H](O)[C@H]1O)[C@H](O)[C@H](O)CCCCCCCCCC(C)CC (some centres unmarked) [Compound 7, CE-3-2] | 44% | > 50 µM | > 50 µM | > 50 µM | > 50 µM | slight cytotoxic activity | – | –
7 | CCCCCCCCCCCCCCCCCCCCCC[C@@H](O)C(=O)N[C@@H](CO[C@@H]1O[C@H](CO)[C@@H](O)[C@H](O)[C@H]1O)[C@H](O)[C@H](O)CCCCCCCCCC(C)CC (stereo partly drawn) [Compound 9, (2S,3S,4R)-1-O-(β-D-glucopyranosyl)-2-[(2R)-2-hydroxytetracosanoylamino]-14-methylhexadecan-3,4-diol] | 50% | > 50 µM | > 50 µM | > 50 µM | > 50 µM | slight cytotoxic activity | – | –
8 | COc1cccc2c1C(=O)c1c(O)c3c(c(O)c1C2=O)C[C@@](O)(C(=O)CO)C[C@@H]3O[C@H]1C[C@H](N)[C@H](O)[C@H](C)O1 [Doxorubicin, reference compound] | 70% | 40 ± 5 µM | 35.7 ± 1.2 µM | 21.8 ± 3.2 µM | 22.3 ± 0.2 µM | – | – | –

Source: PMC9604662, “New Ceramides and Cerebrosides from the Deep-Sea Far Eastern Starfish Ceramaster patagonicus” (Marine Drugs, 2022)
